The text below walks through data of US9562035B2, “Benzamide derivative useful as FASN inhibitors for the treatment of cancer” (Janssen Pharmaceutica NV, priority 2013, dated 2017).

Assay [1] deals with T1, hFASN enzyme (full length) (Homo sapiens, UniProt P49327).
T1 construct: 10 μL hFASN enzyme (full length, 300 ng, purified in house); made in house
As to the kind of experiment: Fatty Acid Synthase (FASN) Inhibition Scintillation Proximity Assay. In kind it is biochemical. To be noted: for IC50: mean where tested more than once, ~ = standard error of pIC50 larger than 0.5; for inhibition at 10 µM: read-out: FASN % Effect @1E−05M. An outline of the steps: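 Purified full-length human FASN (300 ng) incubated 60 min at room temperature with NADPH, [3H]-acetyl-CoA and malonyl-CoA in 100 mM KH2PO4 pH 7.5, 1 mM DTT; compound at 30 μM to 0.01 μM. [3H]-palmitate captured by SPA imaging beads; IC50 from 4-parameter fit, reported as pIC50.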
Background: In a scintillation proximity assay essentially only radioactivity close to the scintillant gives light.

The target in assay [2] is T2, FASN Keto-reductase Domain (Homo sapiens, UniProt P49327).
T2 construct: 10 μL hFASN enzyme (full length, 300 ng, purified in house) and 360 μM NADPH; made in house
T2 sequence (P49327 whole entry, the tested form may be a part): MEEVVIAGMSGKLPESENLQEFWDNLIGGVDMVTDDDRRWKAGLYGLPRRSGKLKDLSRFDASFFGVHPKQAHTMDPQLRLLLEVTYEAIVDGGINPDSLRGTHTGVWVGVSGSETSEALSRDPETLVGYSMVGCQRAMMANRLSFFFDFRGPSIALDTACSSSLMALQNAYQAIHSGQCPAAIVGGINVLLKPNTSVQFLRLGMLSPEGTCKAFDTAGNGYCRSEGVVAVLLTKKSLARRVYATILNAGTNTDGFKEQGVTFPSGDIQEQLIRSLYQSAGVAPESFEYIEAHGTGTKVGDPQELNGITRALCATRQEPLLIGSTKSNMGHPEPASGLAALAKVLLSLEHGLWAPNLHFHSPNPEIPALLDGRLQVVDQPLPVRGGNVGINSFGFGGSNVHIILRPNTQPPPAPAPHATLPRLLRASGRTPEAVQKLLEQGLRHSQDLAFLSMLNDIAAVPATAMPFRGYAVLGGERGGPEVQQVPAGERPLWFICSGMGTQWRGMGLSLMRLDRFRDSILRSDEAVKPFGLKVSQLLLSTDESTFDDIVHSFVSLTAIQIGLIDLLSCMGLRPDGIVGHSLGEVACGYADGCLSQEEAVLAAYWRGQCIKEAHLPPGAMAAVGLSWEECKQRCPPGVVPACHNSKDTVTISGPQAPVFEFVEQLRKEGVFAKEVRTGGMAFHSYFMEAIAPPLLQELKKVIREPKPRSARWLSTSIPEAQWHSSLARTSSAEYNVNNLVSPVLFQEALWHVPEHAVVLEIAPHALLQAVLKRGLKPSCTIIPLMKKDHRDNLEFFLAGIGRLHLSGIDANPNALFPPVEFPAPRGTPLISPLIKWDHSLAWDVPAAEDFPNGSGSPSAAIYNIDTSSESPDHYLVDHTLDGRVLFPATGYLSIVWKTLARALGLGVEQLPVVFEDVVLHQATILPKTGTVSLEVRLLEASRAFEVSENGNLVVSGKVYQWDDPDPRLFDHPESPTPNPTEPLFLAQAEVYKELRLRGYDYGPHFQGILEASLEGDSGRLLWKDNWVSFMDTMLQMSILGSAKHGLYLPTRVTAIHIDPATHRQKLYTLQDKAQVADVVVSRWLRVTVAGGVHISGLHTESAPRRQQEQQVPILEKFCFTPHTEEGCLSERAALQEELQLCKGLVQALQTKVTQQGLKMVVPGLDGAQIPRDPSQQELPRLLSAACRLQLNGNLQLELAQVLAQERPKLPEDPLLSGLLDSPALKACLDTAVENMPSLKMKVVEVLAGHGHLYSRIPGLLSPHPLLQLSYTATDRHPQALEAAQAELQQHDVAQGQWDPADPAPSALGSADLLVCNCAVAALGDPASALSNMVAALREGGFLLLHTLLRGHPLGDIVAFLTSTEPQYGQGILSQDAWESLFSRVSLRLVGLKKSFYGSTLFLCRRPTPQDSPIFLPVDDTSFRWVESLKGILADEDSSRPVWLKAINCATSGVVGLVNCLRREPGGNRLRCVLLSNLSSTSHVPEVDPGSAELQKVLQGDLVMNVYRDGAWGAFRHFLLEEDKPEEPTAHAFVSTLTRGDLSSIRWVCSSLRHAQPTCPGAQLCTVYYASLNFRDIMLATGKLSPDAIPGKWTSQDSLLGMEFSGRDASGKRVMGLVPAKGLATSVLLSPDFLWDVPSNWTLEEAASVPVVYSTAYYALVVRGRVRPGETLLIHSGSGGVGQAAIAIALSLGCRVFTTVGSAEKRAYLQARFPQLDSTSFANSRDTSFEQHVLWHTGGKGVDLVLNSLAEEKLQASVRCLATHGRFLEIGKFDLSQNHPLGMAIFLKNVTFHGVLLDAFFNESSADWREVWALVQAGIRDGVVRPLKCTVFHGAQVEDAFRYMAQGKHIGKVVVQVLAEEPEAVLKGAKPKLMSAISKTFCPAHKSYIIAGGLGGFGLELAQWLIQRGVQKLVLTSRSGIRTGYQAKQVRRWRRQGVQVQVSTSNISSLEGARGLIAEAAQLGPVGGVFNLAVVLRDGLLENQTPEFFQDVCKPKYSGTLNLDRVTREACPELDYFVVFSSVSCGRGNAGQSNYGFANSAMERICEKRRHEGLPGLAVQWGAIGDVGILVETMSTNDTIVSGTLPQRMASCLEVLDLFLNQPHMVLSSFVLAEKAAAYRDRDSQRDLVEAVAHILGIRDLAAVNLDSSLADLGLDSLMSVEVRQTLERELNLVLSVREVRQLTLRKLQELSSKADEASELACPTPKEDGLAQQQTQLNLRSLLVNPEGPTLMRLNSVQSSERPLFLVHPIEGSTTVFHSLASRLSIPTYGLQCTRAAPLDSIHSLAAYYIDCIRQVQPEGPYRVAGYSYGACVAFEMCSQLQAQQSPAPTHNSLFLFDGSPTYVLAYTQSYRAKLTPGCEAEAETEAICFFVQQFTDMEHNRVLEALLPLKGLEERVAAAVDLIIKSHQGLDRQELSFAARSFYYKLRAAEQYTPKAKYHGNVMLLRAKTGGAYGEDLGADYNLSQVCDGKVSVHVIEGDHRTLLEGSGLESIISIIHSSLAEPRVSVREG
As to the kind of experiment: Fatty Acid Synthase Keto-Reductase Domain (FASN KR) Inhibition. To be noted: mean where tested more than once; read-out: FASN K-R Domain pIC50 (converted). In kind it is biochemical. The procedure, abridged: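 Full-length human FASN (300 ng) in 100 mM KH2PO4 pH 7.5 with 360 μM NADPH and 180 mM ethyl acetoacetate (stock); A340 decrease read over 20 min at room temperature.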

The subject of assay [3] is A2780 ovarian cells. As to the kind of experiment: A2780 Ovarian Cell Proliferation Assay in Lipid Reduced Medium, without Palmitate. Format: cell-based. To be noted: Homo sapiens, A2780; lipid reduced medium, without palmitate, 96 h, MTT; read-out: Proliferation A2780 w/o Palmitate pIC50 (converted). The procedure, abridged:
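A2780 cells were seeded in 10% FCS medium and switched next day to 10% lipid-reduced serum without palmitate. Compounds at 0.01–30 μM were added with 0.2% DMSO, 0.2% fatty-acid-free BSA and 0.25% ethanol final. After 96 h, MTT absorbance at 544 nm was normalized to plate controls, and IC50/pIC50 came from a 4-parameter logistic fit.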

Assay [4] deals with A2780 ovarian cells. The experiment in a line: A2780 Ovarian Cell Proliferation Assay in Lipid Reduced Medium, with Palmitate (control). In kind it is cell-based. To be noted: Homo sapiens, A2780; lipid reduced medium, 25 μM palmitate, 96 h, MTT; read-out: Proliferation A2780 with Palmitate pIC50 (converted). An outline of the steps: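 A2780 cells were seeded in RPMI1640 with 10% FCS, then switched next day to medium with 10% lipid-reduced serum. Compound was added with final 25 μM palmitate, 0.2% fatty-acid-free BSA and 0.2% DMSO, and incubated 96 h at 37 °C. Read-out was MTT absorbance at 544 nm; pIC50 = −log(IC50) from curve fit.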

T1 sequence (P49327 whole entry): as the sequence (P49327 whole entry, the tested form may be a part) above

As to `CCN1CCC(C(=O)Nc2cc(C(=O)N3CCC(c4ccc(-c5cnn(C)c5)cc4)CC3)ccc2C)CC1` [Compound 168, 1-ethyl-N-(2-methyl-5-(4-(4-(1-methyl-1H-pyrazol-4-yl)phenyl)piperidine-1-carbonyl)phenyl)piperidine-4-carboxamide], the IC50 in assay [1] was 61.7 nM; in assay [2], 126 nM; in assay [3], 72.4 nM; in assay [4], more than 10000 nM. In assay [1], the inhibition at 10 µM amounted to 113%.
On the same counts, the results for `Cc1ccc(C(=O)N2CC(c3ccc(-c4ccnn4C)cc3)C2)cc1NC(=O)c1ccc(N2CCOCC2)nc1` [Compound 58, N-(2-methyl-5-(3-(4-(1-methyl-1H-pyrazol-5-yl)phenyl)azetidine-1-carbonyl)phenyl)-6-morpholinonicotinamide] are 11.2 nM, 28.2 nM, 18.2 nM, 3720 nM and 111%.
On the same counts, the results for `COc1ccc(C(=O)Nc2cc(C(=O)N3CCC(c4ccc(-c5cnn(C)c5)cc4)CC3)ccc2C)cc1` [Compound 93, 4-methoxy-N-(2-methyl-5-(4-(4-(1-methyl-1H-pyrazol-4-yl)phenyl)piperidine-1-carbonyl)phenyl)benzamide] are 17.4 nM, 29.5 nM, 95.5 nM, more than 10000 nM and 100%.
On the same counts, the results for `Cc1ccc(C(=O)N2CCC(c3ccc(-c4cnn(C)c4)cc3)CC2)cc1NC(=O)c1ccc(Cl)c(Cl)c1` [Compound 123, 3,4-dichloro-N-(2-methyl-5-(4-(4-(1-methyl-1H-pyrazol-4-yl)phenyl)piperidine-1-carbonyl)phenyl)benzamide] are 53.7 nM, 77.6 nM, 162 nM, 6760 nM and 97%.
With `CC(C)Nc1ccc(C(=O)Nc2cc(C(=O)N3CC(c4ccc(-c5cnn(C)c5)cc4)C3)ccc2Cl)cn1` [Compound 65, N-(2-chloro-5-(3-(4-(1-methyl-1H-pyrazol-4-yl)phenyl)azetidine-1-carbonyl)phenyl)-6-(isopropylamino)nicotinamide], the IC50 in assay [1] was 20.9 nM; in assay [2], 28.8 nM; in assay [3], 56.2 nM; in assay [4], more than 10000 nM. Moreover, the inhibition at 10 µM in assay [1] amounted to 99%.
For `CCCN1CC(C(=O)Nc2cc(C(=O)N3CCC(c4ccc(-c5cnn(C)c5)cc4)CC3)ccc2C)C1` [Compound 208, N-(2-methyl-5-(4-(4-(1-methyl-1H-pyrazol-4-yl)phenyl)piperidine-1-carbonyl)phenyl)-1-propylazetidine-3-carboxamide], the IC50 in assay [1] was 269 nM; in assay [2] it was 631 nM; in assay [3], 275 nM; in assay [4], more than 10000 nM. For the same compound, in assay [1], the inhibition at 10 µM was determined as 101%.
On the same counts, the results for `Cc1ccc(C(=O)N2CCC(c3ccc(-c4cnn(C)c4)cc3)CC2)cc1NC(=O)c1cncs1` [Compound 174, N-(2-methyl-5-(4-(4-(1-methyl-1H-pyrazol-4-yl)phenyl)piperidine-1-carbonyl)phenyl)thiazole-5-carboxamide] are 60.3 nM, 135 nM, 141 nM, more than 10000 nM and 103%.
The like results for `CC(C)Nc1ccc(C(=O)Nc2cc(C(=O)N3CCC(c4ccc(-c5ccncc5)cc4)CC3)ccc2Cl)cn1` [Compound 72, N-(2-chloro-5-(4-(4-(pyridin-4-yl)phenyl)piperidine-1-carbonyl)phenyl)-6-(isopropylamino)nicotinamide] were, in that order, 39.8 nM, 251 nM, 513 nM, 2630 nM and 110%.
For the compound `Cc1ccc(C(=O)N2CCC(c3ccc(-c4cnn(C)c4)cc3)CC2)cc1NC(=O)C1CCCC1` [Compound 88, N-(2-methyl-5-(4-(4-(1-methyl-1H-pyrazol-4-yl)phenyl)piperidine-1-carbonyl)phenyl)cyclopentanecarboxamide], the IC50 is 35.5 nM in assay [1], 126 nM in assay [2], 209 nM in assay [3] and more than 10000 nM in assay [4]. Moreover, the inhibition at 10 µM in assay [1] stood at 100%.
On the same counts, the results for `Cc1ccc(C(=O)N2CC[C@H](c3ccc(-c4ccnn4C)cc3)[C@@H](C)C2)cc1NC(=O)c1ccc(NC(C)C)nc1` (racemic) [Compound #81, (±)-6-(isopropylamino)-N-(2-methyl-5-((3R,4S)-3-methyl-4-(4-(1-methyl-1H-pyrazol-5-yl)phenyl)piperidine-1-carbonyl)phenyl)nicotinamide] are approximately 32.4 nM, 100 nM, 110 nM, 4270 nM and 120%.
On the same counts, the results for `Cc1ccc(C(=O)N2CCC(c3ccc(-c4cnn(C)c4)cc3)CC2)cc1NC(=O)c1cnc(NC2CCC2)nc1` [Compound 162, 2-(cyclobutylamino)-N-(2-methyl-5-(4-(4-(1-methyl-1H-pyrazol-4-yl)phenyl)piperidine-1-carbonyl)phenyl)pyrimidine-5-carboxamide] are 20 nM, 32.4 nM, 8.13 nM, approximately 7590 nM and 101%.
On the same counts, the results for `Cc1ccc(C(=O)N2CCC(c3ccc(-c4cnoc4)cc3)CC2)cc1NC(=O)c1ccc(NC(C)C)nc1` [Compound 51, 6-(isopropylamino)-N-(5-(4-(4-(isoxazol-4-yl)phenyl)piperidine-1-carbonyl)-2-methylphenyl)nicotinamide] are 14.8 nM, 25.1 nM, approximately 33.9 nM, 1700 nM and 110%.
Consider `COc1ccc(-c2ccc(C3CCN(C(=O)c4ccc(C)c(NC(=O)c5ccc(NC(C)C)nc5)c4)CC3)cc2)cc1` [Compound 199, 6-(isopropylamino)-N-(5-(4-(4′-methoxy-[1,1′-biphenyl]-4-yl)piperidine-1-carbonyl)-2-methylphenyl)nicotinamide], for which the IC50 in assay [1] is approximately 676 nM; in assay [2], 724 nM; in assay [3], 562 nM; in assay [4], 617 nM. Also, the inhibition at 10 µM in assay [1] was found to be 59%.
For the compound `Cc1ccc(C(=O)N2CCC(c3ccc(-c4cnn(C)c4)cc3)CC2)cc1NC(=O)c1ccc(F)cc1F` [Compound 131, 2,4-difluoro-N-(2-methyl-5-(4-(4-(1-methyl-1H-pyrazol-4-yl)phenyl)piperidine-1-carbonyl)phenyl)benzamide], the IC50 in assay [1] is 51.3 nM; in assay [2], 107 nM; in assay [3], 126 nM; in assay [4], more than 6170 nM. Further, the inhibition at 10 µM in assay [1] was determined as 109%.
The like results for `Cc1ccc(C(=O)N2CCC(c3ccc(-c4cnn(C)c4)cc3)CC2)cc1NC(=O)C1CCN(Cc2ccccc2)CC1` [Compound 124, 1-benzyl-N-(2-methyl-5-(4-(4-(1-methyl-1H-pyrazol-4-yl)phenyl)piperidine-1-carbonyl)phenyl)piperidine-4-carboxamide] were, in that order, 25.7 nM, 81.3 nM, 33.9 nM, 5370 nM and 105%.
The like results for `Cc1ccc(C(=O)N2CCC(c3ccc(-c4cnn(CCN(C)C)c4)cc3)CC2)cc1NC(=O)c1ccc(NC(C)C)nc1` [Compound 253, N-(5-(4-(4-(1-(2-(dimethylamino)ethyl)-1H-pyrazol-4-yl)phenyl)piperidine-1-carbonyl)-2-methylphenyl)-6-(isopropylamino)nicotinamide] were, in that order, 316 nM, 1230 nM, approximately 257 nM, approximately 1860 nM and 104%.
Regarding `Cc1ccc(C(=O)N2CC(c3ccc(-c4cnn(C)c4)cc3)C2)cc1NC(=O)C1CCCCC1` [Compound 125, N-(2-methyl-5-(3-(4-(1-methyl-1H-pyrazol-4-yl)phenyl)azetidine-1-carbonyl)phenyl)cyclohexanecarboxamide], the IC50 in assay [1] was 44.7 nM; in assay [2] it was 79.4 nM; in assay [3] it was 132 nM; in assay [4] it was 4790 nM. Moreover, the inhibition at 10 µM in assay [1] was determined as 104%.
